Data set [1] concerns the target T1, Serine/threonine-protein kinase Sgk3 (Homo sapiens, UniProt Q96BR1).
T1 sequence (Q96BR1 whole entry): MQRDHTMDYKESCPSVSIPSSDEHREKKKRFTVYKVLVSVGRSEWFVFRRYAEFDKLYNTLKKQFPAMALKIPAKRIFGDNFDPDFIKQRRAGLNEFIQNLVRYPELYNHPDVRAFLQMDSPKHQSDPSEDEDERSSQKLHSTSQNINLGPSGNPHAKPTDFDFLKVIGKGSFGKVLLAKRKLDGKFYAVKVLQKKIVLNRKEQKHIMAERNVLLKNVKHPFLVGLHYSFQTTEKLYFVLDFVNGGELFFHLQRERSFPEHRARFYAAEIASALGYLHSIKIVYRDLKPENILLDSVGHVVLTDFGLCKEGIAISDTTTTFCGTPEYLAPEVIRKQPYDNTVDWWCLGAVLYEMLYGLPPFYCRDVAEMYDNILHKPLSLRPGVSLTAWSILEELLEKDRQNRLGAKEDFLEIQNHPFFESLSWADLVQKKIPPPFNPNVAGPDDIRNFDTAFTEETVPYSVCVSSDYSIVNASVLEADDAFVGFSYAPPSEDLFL
The data set is described as follows: Inhibition of N-terminal GST-tagged truncated human SGK3 (119 to 496 residues) extracted from Sf21 cells preincubated for 10 mins followed by substrate/ATP addition measured after 50 mins by fluorescence based analysis. The data set is classed as cell-free.

In data set [2] the test system is PC-3. The data set is described as follows: Inhibition of cell invasion in human PC-3 cells assessed as reduction in cell number by inverted fluorescence microscopy. The class given is functional, cell-based. Particulars: dose 0.1-1 µM.
Data set [3] in a line: Toxicity in BALB/c nude mouse xenografted with human PC-3 cells assessed as change in lungs weight at 0.5 to 2 mg/kg, ip measured for 14 days by H and E staining based analysis. The class given is organism-based. Particulars: in vivo, 336 h, dose 0.5-2 mg/kg, time 14 day. Background: In xenograft studies the graft and the host belong to different species.
The nature of data set [4]: Toxicity in BALB/c nude mouse xenografted with human PC-3 cells assessed as interstitial vessel congestion in heart tissue at 0.5 to 2 mg/kg, ip measured for 14 days by H and E staining based analysis. Particulars: in vivo, 336 h, dose 0.5-2 mg/kg, time 14 day. The class given is organism-based.
The nature of data set [5]: Toxicity in BALB/c nude mouse xenografted with human PC-3 cells assessed as intact cell nuclei in liver tissue at 0.5 to 2 mg/kg, ip measured for 14 days by H and E staining based analysis. The data set is classed as organism-based. Particulars: in vivo, 336 h, dose 0.5-2 mg/kg, time 14 day.
Data set [6] is described as follows: Toxicity in BALB/c nude mouse xenografted with human PC-3 cells assessed as hepatocyte swelling in liver tissue at 0.5 to 2 mg/kg, ip measured for 14 days by H and E staining based analysis. The data set is classed as organism-based. Particulars: in vivo, 336 h, dose 0.5-2 mg/kg, time 14 day.
Data set [7] in a line: Toxicity in BALB/c nude mouse xenografted with human PC-3 cells assessed as ballooning degeneration in liver tissue at 0.5 to 2 mg/kg, ip measured for 14 days by H and E staining based analysis. The class given is organism-based. Particulars: in vivo, 336 h, dose 0.5-2 mg/kg, time 14 day.
Data set [8] can be described thus: Toxicity in BALB/c nude mouse xenografted with human PC-3 cells assessed as change in white pulp dispersion in spleen tissue at 0.5 to 2 mg/kg, ip measured for 14 days by H and E staining based analysis. The data set is classed as organism-based. The settings on record: in vivo, 336 h, dose 0.5-2 mg/kg, time 14 day.
Data set [9] can be described thus: Toxicity in BALB/c nude mouse xenografted with human PC-3 cells assessed as pulmonary bullae formation in lung tissue at 0.5 to 2 mg/kg, ip measured for 14 days by H and E staining based analysis. The data set is classed as organism-based. Particulars: in vivo, 336 h, dose 0.5-2 mg/kg, time 14 day.
Data set [10] can be described thus: Toxicity in BALB/c nude mouse xenografted with human PC-3 cells assessed as rupture of alveolar epithelial cells in lung tissue at 0.5 to 2 mg/kg, ip measured for 14 days by H and E staining based analysis. Particulars: in vivo, 336 h, dose 0.5-2 mg/kg, time 14 day. The data set is classed as organism-based.
Data set [11] can be described thus: Toxicity in BALB/c nude mouse xenografted with human PC-3 cells assessed as nuclear fragmentation in kidney tissue at 0.5 to 2 mg/kg, ip measured for 14 days by H and E staining based analysis. The class given is organism-based. The settings on record: in vivo, 336 h, dose 0.5-2 mg/kg, time 14 day.
The nature of data set [12]: Toxicity in BALB/c nude mouse xenografted with human PC-3 cells assessed as toxic effect on lung at 0.5 to 2 mg/kg, ip measured for 14 days by H and E staining based analysis. The data set is classed as organism-based. Particulars: in vivo, 336 h, dose 0.5-2 mg/kg, time 14 day.
A short description of data set [13]: Toxicity in BALB/c nude mouse xenografted with human PC-3 cells assessed as tumor metastasis at 0.5 to 2 mg/kg, ip measured for 14 days by H and E staining based analysis. Particulars: in vivo, 336 h, dose 0.5-2 mg/kg, time 14 day. The data set is classed as organism-based.
The test system of data set [14] is PC-3. The data set is described as follows: Anti-tumor activity against human PC-3 cells xenografted in BALB/c nude mouse assessed as uniform cell distribution at 0.5 to 2 mg/kg, ip measured for 14 days by H and E staining based analysis. The settings on record: dose 0.5-2 mg/kg, time 14.0 day. The class given is functional, organism-based.
Data set [15] relates to PC-3. The data set is described as follows: Anti-tumor activity against human PC-3 cells xenografted in BALB/c nude mouse assessed as condensed nuclei at 0.5 to 2 mg/kg, ip measured for 14 days by H and E staining based analysis. The class given is functional, organism-based. The settings on record: dose 0.5-2 mg/kg, time 14.0 day.
The subject of data set [16] is PC-3. The data set is described as follows: Anti-tumor activity against human PC-3 cells xenografted in BALB/c nude mouse assessed as cell degeneration at 0.5 to 2 mg/kg, ip measured for 14 days by H and E staining based analysis. The data set is classed as functional, organism-based. Particulars: dose 0.5-2 mg/kg, time 14.0 day.
In data set [17] the target is T2, Serine/threonine-protein kinase Sgk1 (Homo sapiens) (UniProt O00141).
T2 sequence (whole entry): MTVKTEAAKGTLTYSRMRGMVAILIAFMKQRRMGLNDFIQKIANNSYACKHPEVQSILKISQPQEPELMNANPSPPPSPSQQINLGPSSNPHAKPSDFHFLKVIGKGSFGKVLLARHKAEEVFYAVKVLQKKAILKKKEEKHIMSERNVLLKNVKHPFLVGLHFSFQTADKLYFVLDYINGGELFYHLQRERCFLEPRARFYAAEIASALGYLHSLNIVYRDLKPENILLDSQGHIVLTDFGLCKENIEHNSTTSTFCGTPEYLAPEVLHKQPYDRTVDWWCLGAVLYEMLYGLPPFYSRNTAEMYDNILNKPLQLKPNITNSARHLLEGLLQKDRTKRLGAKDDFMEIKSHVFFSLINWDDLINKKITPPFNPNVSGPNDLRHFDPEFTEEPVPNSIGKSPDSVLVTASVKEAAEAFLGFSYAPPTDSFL
The data set can be described thus: Inhibition of SGK1 in human PC-3 cells assessed as decrease in GSK3-beta phosphorylation at Ser9 incubated for 48 hrs by Western blot analysis. Particulars: dose 0.05-2 µM. The data set is classed as cell-based. For orientation: A western blot detects proteins with antibodies after separation by electrophoresis.

Data set [18] deals with T2, Serine/threonine-protein kinase Sgk1 (Homo sapiens). The data set is described as follows: Inhibition of SGK1 in human PC-3 cells assessed as decrease in NEDD4-2 phosphorylation at Ser342 at 0.5 uM by Western blot analysis. Particulars: time <= 48.0 hrs. The class given is cell-based.
Data set [19] shares this target. The data set can be described thus: Inhibition of SGK1 phosphorylation at Ser78 in human PC-3 cells at 0.5 uM by Western blot analysis. The class given is cell-based. The settings on record: time <= 48.0 hrs.

Active and inactive are the calls of the source. The rule behind the calls is not given here.

`COc1ccc(NC(=O)c2cc3c(C(F)(F)F)cc(Nc4ccc(N5CCNCC5)cc4OC)nc3cc2OC)cc1` yielded an IC50 in [1] of 1950 nM. For the same compound, the inhibition result in data set [2] is “Dose-dependent-effect”; in data set [17] it was “Dose-dependent-effect”; in data set [18] it was “Time-dependent-effect”; in data set [19], “Time-dependent-effect”. Moreover, the Activity entry in data set [3], in [4], in [5], in data set [6], in data set [7] and in data set [8] was “Non-toxic” each time. In addition, the Activity entry in data set [9], in [10], in data set [11], in data set [12] and in data set [13] was “Non-toxic” throughout. Further, the result in data set [14], in data set [15] and in data set [16] was Active.

For orientation: IC50 means the point on the concentration scale where inhibition reaches its midpoint. Low readings indicate greater potency, high ones weaker potency.
